The text below walks through data of patent US20030083271A1, “Topoisomerase I selective cytotoxic sugar derivatives of indolopyrrolocarbazoles” (priority 2001, published 2003).

SMILES strings stand for the structures.

Usually IC50 stands for the midpoint of a concentration-inhibition curve. A word on the EC50: it is the concentration needed to bring the measured effect to its halfway point.

Data set [1] relates to P388/CPT45 cells. The experiment in a line: Cytotoxicity in camptothecin-resistant P388/CPT45 cells relative to parental P388 (selectivity index R/S). Type of data set: cell-based, murine. Particulars: IC50 P388/CPT45 cells divided by IC50 parental P388 cells. The source says: The present invention includes fluoro sugar and other sugar derivatives of indolopyrrolocarbazoles of formula (I), as defined above. […] Most importantly, the instant invention describes topo I active compounds, related to compounds disclosed in WO 98/07433 and co-pending U.S. application, Ser. No. 08/914566 (both herein incorporated by reference), which display a surprising and unexpected selectivity index when evaluated for cytotoxicity in certain cell lines which express normal levels of topo I required for cell proliferation, compared with cell lines that are deficient in or underexpress topo I. Said “selectivity index” (R/S) was generated by dividing the cytotoxic IC50 of a particular compound against a camptothecin-resistant murine leukemia cell line, P388/CPT45, by the IC50 generated when using the parent P388 cell line. […] A level of selectivity was judged to be advantageous and beneficial in, for example, modulating potential undesirable side effects and/or toxicity. The compounds of the present invention were selected from compounds generically disclosed in WO 98/07433 and co-pending U.S. patent application, Ser. No. 08/914566, on the basis of an unexpected and unpredictable selectivity index (see Table I and II). […] Simple changes in the substitution of the sugar portion or the indolopyrrolocarbazole portion of the present invention will change the selectivity. This change in selectivity is not predictable by one skilled in the art.
(§1) Similarly, P338 murine leukemia cells were maintained in RPMI 1640 supplemented with 20% fetal bovine serum and 10 μM 2-mercaptoethanol. A camptothecin resistant subline, P388/CPT45, was selected for resistance to camptothecin and is over 1000-fold resistant to this compound (Woessner, et al. Oncol. Res. 1992, 4, 481-488).
(§2) In vitro cytotoxicity was assessed in tissue culture cells by MTS (3-(4,5-dimethylthiazol-2-yl)-5-(3-carboxymethoxyphenyl)-2-(4-sulphenyl)-2H-tetrazolium, inner salt) assay (Riss and Moravec, Mol. Biol. Cell 1992, 3 (Suppl.), 184a). Cells were plated at 8,000 cell/well in 96 well microtiter plates and 24 hours later serial dilutions of the test compounds were made and added to the cells. The cells were incubated at 37° C. for 72 hours, at which time the tetrazolium dye, MTS at 333 μg/ml (final concentration), in combination with the electron coupling agent phenazine methosulfate at 25 μM (final concentration) was added. A dehydrogenase enzyme in live cells reduces the MTS to a form that absorbs light at 492 nm which can be quantitated spectrophotometrically. The greater the absorbance the greater the number of live cells. The results are expressed as an IC50, which is the drug concentration required to inhibit cell proliferation (i.e., absorbance at 492 nm) to 50% of that of untreated control cells.
The selectivity index (R/S) is defined as the ratio obtained by dividing the IC50 value obtained using P388/CPT45 cells by that obtained using parental P388 cells. The R/S ratios used to determine the relative topo I selectivity of selected compounds of this invention are shown below in Table I.

The subject of data set [2] is P388 murine leukemia cells. The experiment in a line: In vitro cell-based cytotoxicity, parental P388 cells. The following applies: Mus musculus, 72 h, median cytotoxic concentration, 3 days continuous exposure. As for the experimental part:
The proliferation inhibition activity against the murine P388 cell line was measured as follows. Evaluation of a soluble tetrazolium/formazan assay for cell growth and drug sensitivity in culture, using human and other tumor cell lines, was done according to the procedure described in Cancer Res. 1988, 48, 4827-4833. Cells were plated at 4000 cells/well in 96 well microtiter plates and 24 h later drugs were added and serially diluted. The cells were incubated at 37° C. for 72 h, at which time a tetrazolium dye, XTT, containing phenazine methosulfate was added. A dehydrogenase enzyme in live cells reduced the XTT to a form that absorbs light at 450 nm, which could be quantitated spectrophotometrically. The greater the absorbance the greater the number of live cells. The results are expressed as an IC50, which is the drug concentration required to inhibit cell proliferation (i.e., absorbance at 450 nm) to 50% of that of untreated control cells.
as §1, §2
The cytotoxic activity for certain compounds of the present invention, in both parental P388 and the camptothecin-resistant P388/CPT45 cell lines are shown below in Table I.

Data set [3] addresses T1, purified human topoisomerase I (Homo sapiens, UniProt P11387).
T1 construct: purchased Topogen
T1 sequence (P11387 1-765): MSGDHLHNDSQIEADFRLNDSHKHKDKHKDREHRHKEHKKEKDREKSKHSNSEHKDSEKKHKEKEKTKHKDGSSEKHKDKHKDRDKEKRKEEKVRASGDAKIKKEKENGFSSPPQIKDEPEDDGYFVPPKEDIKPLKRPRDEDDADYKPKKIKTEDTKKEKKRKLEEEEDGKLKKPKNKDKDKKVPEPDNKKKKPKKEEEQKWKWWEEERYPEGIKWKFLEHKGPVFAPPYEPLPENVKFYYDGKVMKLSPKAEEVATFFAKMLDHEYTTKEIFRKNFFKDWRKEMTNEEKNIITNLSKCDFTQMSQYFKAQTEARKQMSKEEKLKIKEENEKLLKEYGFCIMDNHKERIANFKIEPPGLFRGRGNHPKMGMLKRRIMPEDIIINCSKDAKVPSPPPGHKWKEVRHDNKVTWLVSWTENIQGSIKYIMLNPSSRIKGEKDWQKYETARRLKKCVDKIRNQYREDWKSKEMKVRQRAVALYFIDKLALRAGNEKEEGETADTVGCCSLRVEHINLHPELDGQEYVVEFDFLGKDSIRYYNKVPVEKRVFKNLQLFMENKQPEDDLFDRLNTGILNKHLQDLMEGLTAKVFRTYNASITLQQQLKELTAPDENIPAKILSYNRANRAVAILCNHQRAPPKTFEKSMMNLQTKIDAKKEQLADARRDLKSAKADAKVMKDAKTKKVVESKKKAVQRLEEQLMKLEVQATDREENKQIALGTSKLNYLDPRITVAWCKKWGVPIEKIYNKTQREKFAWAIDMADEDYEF
The experiment in a line: Topoisomerase I-mediated single strand DNA break induction (in vitro). Particulars: median effect concentration for inducing single-strand breaks in the DNA substrate; read-out: Topo I EC50. Type of data set: biochemical. As for the experimental part: Topoisomerase I activity was measured as described below. The procedure for assaying compound-induced, topoisomerase I-mediated single strand breaks in DNA was essentially that described by Hsiang, et al., (J. Biol. Chem. 1985, 260, 14873-14878). Samples dissolved in 100% DMSO as either […] or 10 mg/ml solutions, unless otherwise stated, were diluted in Tris-EDTA buffer. Marine bacteriophage PM2 DNA (Boehringer Mannheim) was also diluted in Tris-EDTA buffer to a concentration of 0.02 μg/μl. Different dilutions of the compound being evaluated were mixed with diluted DNA and this mixture was added to […] (one unit of enzyme activity is defined as the amount capable of relaxing 100 ng of supercoiled DNA in approximately 30 minutes at 37° C.) aliquots of purified human topoisomerase I (Topogen) in 2X reaction buffer to start the reaction. The compound-DNA-enzyme mixture was incubated for 30 minutes at 37° C. before stopping the reaction with warm stop buffer containing sodium dodecyl sulfate and proteinase K (Sigma). These mixtures were allowed to incubate at 37° C. for another 10 minutes, at which time the mixtures were removed from the waterbath and extracted with a 24:1 mixture of chloroform/isoamyl alcohol. Following centrifugation, aliquots of the aqueous phases were placed in wells of a 0.9% agarose (SeaKem) gel in Tris-borate buffer containing 0.5 μg/ml of ethidium bromide and subjected to electrophoresis for 15 hours to separate the different topological isomers and nicked and broken DNAs. After destaining the gel in water, the ethidium bromide stained DNA reaction products were visualized by exposing the gel to UV irradiation. Negatives of the photographs of the irradiated gels were scanned with a densitometer and areas under the peaks were calculated in order to obtain percent single strand DNA break formation for each sample. A median effective concentration (EC50) was obtained for each compound by interpolation between points of the resulting dose-effect curve which defines the potency of the compound for its effect in inducing topoisomerase I-mediated single strand breaks in DNA. The topoisomerase I activities for certain compounds of the present invention are shown below in Table I.

For a further data set, the system named is HT-29 colon carcinoma. The experiment in a line: In vivo antitumor activity, HT-29 xenograft. Further details: species or system Balb/c athymic (nude) female mice. As for the experimental part: Compounds: Examples of this invention were administered in an appropriate vehicle such as cremophor/ethanol/water (10%/10%/80%), in normal saline, water/carboxymethylcellulose vehicle.
All compounds were tested at several dose levels, with attempts each time to achieve their maximum tolerated dose (MTD). […] The optimal dose (OD) was the dose producing the best therapeutic effect, and was usually, but not always, synonymous with the MTD.
Tumors: Human tumors (HCT-116 and HT-29 colon carcinomas) were grown as xenografts in Balb/c athymic (nude) female mice. Antitumor assays. All tumors were implanted subcutaneously (sc) as 3-4mm fragments using a 13 gauge trochar. There were generally eight mice per treatment and control group. When treatment was delayed until tumors had obtained a certain size (weight), referred to as a staged tumor experiment (expt.), tumor-bearing mice were selected so that their tumors fell within a limited range of sizes for the particular expt.
Tumors were measured by calipers, and tumor weight calculated by the formula length (mm) times (×) width (mm)^2/2=tumor weight (mg). The median time (in days) to reach a predetermined tumor target size (for example, 500 mg) for untreated, control (C) mice relative to the time to reach the same target size for treated (T) mice, was calculated as a T-C value. T-C values were divided by the tumor volume doubling time (TVDT), and multiplied by 3.32, to yield a gross log cell kill (LCK) value, [i.e., (T-C)/TVDT×3.32=LCK].
A mouse was considered cured if there was no palpable tumor after a period of time equal to 10×TVDT post-reatment (Rx).

Data set [4] relates to P388/CPT45 cells. Particulars: P388/CPT45 versus parental P388; cited from earlier work.

Take `O=C1NC(=O)c2c1c1c3cc(F)c(F)cc3[nH]c1c1c2c2cc(F)c(F)cc2n1[C@@H]1O[C@H](CO)C[C@H](O)[C@H]1O` [Example 21]: the “Selectivity Index R/S” value in the data set on P388/CPT45 cells [1] turned out to be 207.7. The IC50 in data set [2] came out at 5 nM. In data set [3], the EC50 is 70 nM.
As to `O=C1NC(=O)c2c1c1c3cc(F)c(F)cc3sc1c1c2c2cc(F)c(F)cc2n1[C@@H]1O[C@H](CF)[C@@H](O)[C@H](O)[C@H]1O` [Example 8, 13-[6-Dideoxy-6-fluoro-β-D-glucopyranosyl]-2,3,9,10-tetrafluoro-5H,13H-benzo[b]thienyl[2,3-a]pyrrolo[3,4-c]carbazole-5,7(6H)-dione], the “Selectivity Index R/S” value with P388/CPT45 cells [1] came to 119.1. Besides, in data set [2], the IC50 came to 52 nM. In addition, the EC50 in data set [3] was determined as 120 nM.
The corresponding values for `[N-]=[N+]=N[C@H]1[C@@H](O)[C@@H](O)[C@H](n2c3ccc(F)cc3c3c4c(c5c6cc(F)ccc6[nH]c5c32)C(=O)NC4=O)O[C@@H]1CF` [Example 19] are over 195.2, under 3 nM and 60 nM.
For the molecule `O=C1NC(=O)c2c1c1c3cc(F)c(F)cc3sc1c1c2c2cc(F)c(F)cc2n1[C@@H]1O[C@H](CO)C(F)(F)[C@H](O)[C@H]1O` [Example 30, 12-[4,4-Difluoro-4-deoxy-β-D-glucopyranosyl]-2,3,9,10-tetrafluoro-5H, 13H-benzo[b]thienyl[2,3-a]pyrrolo[3,4c]carbazole-5,7(6H)-dione], in the data set on HT-29 colon carcinoma (HT29 sc xenograft in nude mice, at optimal or maximum tolerated dose, CPT-11 run as comparator in same experiment), the “LCK (gross log cell kill)” value was over 1.4. In addition, in the data set on HT-29 colon carcinoma (HT29 xenograft experiment, nude mice), the “MTD (optimal or maximum tolerated dose level tested)” value turned out to be 16 mpkpi. Moreover, the “Selectivity Index R/S” value in the data set with P388/CPT45 cells [1] stood at 575.5. Besides, the EC50 in data set [3] turned out to be 10 nM.
For `O=C1NC(=O)c2c1c1c3cc(F)ccc3[nH]c1c1c2c2cc(F)ccc2n1[C@@H]1O[C@H](CO)C[C@H](O)[C@H]1O` [Example 31, 12-[4-Deoxy-β-D-glucopyranosyl]-3,9-difluoro-12,13-dihydro-5H-indolo[2,3-a]pyrrolo[3,4-c]carbazole-5,7(6H)-dione], the “Selectivity Index R/S” value in the data set on P388/CPT45 cells [1] is reported as 720.7. Also, the IC50 in data set [2] came to 4 nM. For the same molecule, the EC50 in data set [3] came to 80 nM.
With `O=C1NC(=O)c2c1c1c3cc(F)ccc3sc1c1c2c2cc(F)ccc2n1[C@@H]1O[C@H](CSc2nccc(O)n2)[C@@H](O)[C@H](O)[C@H]1O` [Example 35], the “Selectivity Index R/S” value in the data set on P388/CPT45 cells [1] was under 1.0. Moreover, the IC50 in data set [2] was over 7680 nM. The EC50 in data set [3] turned out to be 240 nM.
As to `O=C1NC(=O)c2c1c1c3cc(F)ccc3sc1c1c2c2cc(F)ccc2n1[C@@H]1O[C@H](CN2CCOCC2)[C@@H](O)[C@H](O)[C@H]1O` [Example 13], in the data set with P388/CPT45 cells [1], the “Selectivity Index R/S” value amounted to 140.0. In data set [2], the 50% inhibitory concentration (IC50) came out at 100 nM. Also, the EC50 in data set [3] was found to be 160 nM.
Take `CC[C@@]1(O)C(=O)OCc2c1cc1n(c2=O)Cc2cc3ccccc3nc2-1` [camptothecin]: the “fold resistance of P388/CPT45 subline” value in the data set with P388/CPT45 cells [4] is “over 1000 fold”.
